Measurements taken from PubChem BioAssay AID1963827 (Molecular Pharmacology Branch, DTP, NCI, 2024).

Test system: 994946-033-R-J1-PDC complex spheroid viability
Experiment: Anticancer human tumor 994946-033-R-J1-PDC patient-derived melanoma cell line growth inhibition [POLQ]
Conditions: for IC50: curve of first compound; for viability, T/C: stronger effect = lower value
In short: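 Growth inhibition in 3D: complex spheroids (tumor PDC, HUVEC, MSC) treated with POLQ inhibitor combinations; where Cmax unknown, highest tested concentration 10 microM, except SN-38 at 1 microM.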

[1] = second compound 0.0316 µM, first compound 0.0316 µM
[2] = second compound 0.0316 µM, first compound 0.1 µM
[3] = second compound 0.1 µM, first compound 0.0316 µM
[4] = second compound 0.1 µM, first compound 0.1 µM
[5] = second compound 0.316 µM, first compound 0.0316 µM
[6] = second compound 0.316 µM, first compound 0.1 µM
[7] = second compound 1 µM, first compound 0.0316 µM
[8] = second compound 1 µM, first compound 0.1 µM
[9] = second compound 3.16 µM, first compound 0.0316 µM
[10] = second compound 3.16 µM, first compound 0.1 µM
[11] = second compound 10 µM, first compound 0.0316 µM
[12] = second compound 10 µM, first compound 0.1 µM
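Note: spheroids exposed to drugs for 7 days.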
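Throughout, for viability, T/C: 100% = DMSO vehicle treated spheroids.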

## Cn1ncnc1[C@H]1c2n[nH]c(=O)c3cc(F)cc(c23)N[C@@H]1c1ccc(F)cc1 + Cc1cccc(N(C)C(=O)C2C(O)CCN2c2nc(C)cc(C(F)(F)F)c2C#N)c1
Second compound 0.0316 µM
  IC50: > 0.1 µM
Second compound 0.1 µM
  IC50: > 0.1 µM
Second compound 0.316 µM
  IC50: > 0.1 µM
Second compound 1 µM
  IC50: > 0.1 µM
Second compound 3.16 µM
  IC50: > 0.1 µM
Second compound 10 µM
  IC50: > 0.1 µM
Second compound 0.0316 µM, first compound 0.000316 µM
  viability, T/C: 105%
Second compound 0.0316 µM, first compound 0.001 µM
  viability, T/C: 85.7%
Second compound 0.0316 µM, first compound 0.00316 µM
  viability, T/C: 86.8%
Second compound 0.0316 µM, first compound 0.01 µM
  viability, T/C: 77.2%
[1]
  viability, T/C: 87.7%
[2]
  viability, T/C: 75.1%
Second compound 0.1 µM, first compound 0.000316 µM
  viability, T/C: 81.5%
Second compound 0.1 µM, first compound 0.001 µM
  viability, T/C: 107%
Second compound 0.1 µM, first compound 0.00316 µM
  viability, T/C: 78.3%
Second compound 0.1 µM, first compound 0.01 µM
  viability, T/C: 87.8%
[3]
  viability, T/C: 88.3%
[4]
  viability, T/C: 64.2%
Second compound 0.316 µM, first compound 0.000316 µM
  viability, T/C: 115%
Second compound 0.316 µM, first compound 0.001 µM
  viability, T/C: 118%
Second compound 0.316 µM, first compound 0.00316 µM
  viability, T/C: 77.8%
Second compound 0.316 µM, first compound 0.01 µM
  viability, T/C: 99.2%
[5]
  viability, T/C: 74.8%
[6]
  viability, T/C: 56%
Second compound 1 µM, first compound 0.000316 µM
  viability, T/C: 134%
Second compound 1 µM, first compound 0.001 µM
  viability, T/C: 91%
Second compound 1 µM, first compound 0.00316 µM
  viability, T/C: 95.9%
Second compound 1 µM, first compound 0.01 µM
  viability, T/C: 80.2%
[7]
  viability, T/C: 76.9%
[8]
  viability, T/C: 66.9%
Second compound 3.16 µM, first compound 0.000316 µM
  viability, T/C: 111%
Second compound 3.16 µM, first compound 0.001 µM
  viability, T/C: 111%
Second compound 3.16 µM, first compound 0.00316 µM
  viability, T/C: 98%
Second compound 3.16 µM, first compound 0.01 µM
  viability, T/C: 76%
[9]
  viability, T/C: 87.3%
[10]
  viability, T/C: 78.7%
Second compound 10 µM, first compound 0.000316 µM
  viability, T/C: 109%
Second compound 10 µM, first compound 0.001 µM
  viability, T/C: 65%
Second compound 10 µM, first compound 0.00316 µM
  viability, T/C: 95.7%
Second compound 10 µM, first compound 0.01 µM
  viability, T/C: 106%
[11]
  viability, T/C: 74.8%
[12]
  viability, T/C: 69.3%

## CCCS(=O)(=O)Nc1ccc(F)c(C(=O)c2c[nH]c3ncc(-c4ccc(Cl)cc4)cc23)c1F + Cc1cccc(N(C)C(=O)C2C(O)CCN2c2nc(C)cc(C(F)(F)F)c2C#N)c1
Second compound 0.0316 µM
  IC50: 6.38 µM
Second compound 0.1 µM
  IC50: 6.17 µM
Second compound 0.316 µM
  IC50: 6.51 µM
Second compound 1 µM
  IC50: 4.95 µM
Second compound 3.16 µM
  IC50: 6.02 µM
Second compound 10 µM
  IC50: 5.54 µM
[1]
  viability, T/C: 67.5%
[2]
  viability, T/C: 102%
Second compound 0.0316 µM, first compound 0.316 µM
  viability, T/C: 94.3%
Second compound 0.0316 µM, first compound 1 µM
  viability, T/C: 81.1%
Second compound 0.0316 µM, first compound 3.16 µM
  viability, T/C: 85.7%
Second compound 0.0316 µM, first compound 10 µM
  viability, T/C: 27.1%
[3]
  viability, T/C: 91.3%
[4]
  viability, T/C: 110%
Second compound 0.1 µM, first compound 0.316 µM
  viability, T/C: 67.4%
Second compound 0.1 µM, first compound 1 µM
  viability, T/C: 115%
Second compound 0.1 µM, first compound 3.16 µM
  viability, T/C: 88.2%
Second compound 0.1 µM, first compound 10 µM
  viability, T/C: 22.4%
[5]
  viability, T/C: 78.7%
[6]
  viability, T/C: 101%
Second compound 0.316 µM, first compound 0.316 µM
  viability, T/C: 95%
Second compound 0.316 µM, first compound 1 µM
  viability, T/C: 104%
Second compound 0.316 µM, first compound 3.16 µM
  viability, T/C: 99.3%
Second compound 0.316 µM, first compound 10 µM
  viability, T/C: 22.9%
[7]
  viability, T/C: 64.8%
[8]
  viability, T/C: 71.4%
Second compound 1 µM, first compound 0.316 µM
  viability, T/C: 81.6%
Second compound 1 µM, first compound 1 µM
  viability, T/C: 93%
Second compound 1 µM, first compound 3.16 µM
  viability, T/C: 63.7%
Second compound 1 µM, first compound 10 µM
  viability, T/C: 20.9%
[9]
  viability, T/C: 103%
[10]
  viability, T/C: 76.3%
Second compound 3.16 µM, first compound 0.316 µM
  viability, T/C: 97.3%
Second compound 3.16 µM, first compound 1 µM
  viability, T/C: 84.9%
Second compound 3.16 µM, first compound 3.16 µM
  viability, T/C: 95.3%
Second compound 3.16 µM, first compound 10 µM
  viability, T/C: 17.4%
[11]
  viability, T/C: 88.4%
[12]
  viability, T/C: 84.6%
Second compound 10 µM, first compound 0.316 µM
  viability, T/C: 112%
Second compound 10 µM, first compound 1 µM
  viability, T/C: 95.6%
Second compound 10 µM, first compound 3.16 µM
  viability, T/C: 80.9%
Second compound 10 µM, first compound 10 µM
  viability, T/C: 17.1%
